The text below walks through data of patent publication US20230257372A1 (CHONG KUN DANG PHARMACEUTICAL CORP., priority 2020, published 2023).

The target in assay [1] is T1, human recombinant HDAC1 (Homo sapiens, UniProt Q13547).
T1 construct: purchased Enzo Life Science, Inc. BML-SE456
The assay can be described thus: HDAC1 enzyme activity inhibition (HDAC Fluorimetric Drug Discovery Kit). The conditions noted are these: human recombinant HDAC1; IC50 calculated with GraphPad Prism; read-out: HDAC1. In kind it is biochemical. In a few lines: (§1)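 Enzyme at 0.3 µg per well was reacted with 10 μM fluorogenic substrate in presence of 5-fold diluted compound, 30° C for 60 min.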

In assay [2] the target is T2, human recombinant HDAC6 (Homo sapiens, UniProt Q9UBN7).
T2 construct: purchased Calbiochem Inc. 382180
T2 sequence (Q9UBN7 1-1215): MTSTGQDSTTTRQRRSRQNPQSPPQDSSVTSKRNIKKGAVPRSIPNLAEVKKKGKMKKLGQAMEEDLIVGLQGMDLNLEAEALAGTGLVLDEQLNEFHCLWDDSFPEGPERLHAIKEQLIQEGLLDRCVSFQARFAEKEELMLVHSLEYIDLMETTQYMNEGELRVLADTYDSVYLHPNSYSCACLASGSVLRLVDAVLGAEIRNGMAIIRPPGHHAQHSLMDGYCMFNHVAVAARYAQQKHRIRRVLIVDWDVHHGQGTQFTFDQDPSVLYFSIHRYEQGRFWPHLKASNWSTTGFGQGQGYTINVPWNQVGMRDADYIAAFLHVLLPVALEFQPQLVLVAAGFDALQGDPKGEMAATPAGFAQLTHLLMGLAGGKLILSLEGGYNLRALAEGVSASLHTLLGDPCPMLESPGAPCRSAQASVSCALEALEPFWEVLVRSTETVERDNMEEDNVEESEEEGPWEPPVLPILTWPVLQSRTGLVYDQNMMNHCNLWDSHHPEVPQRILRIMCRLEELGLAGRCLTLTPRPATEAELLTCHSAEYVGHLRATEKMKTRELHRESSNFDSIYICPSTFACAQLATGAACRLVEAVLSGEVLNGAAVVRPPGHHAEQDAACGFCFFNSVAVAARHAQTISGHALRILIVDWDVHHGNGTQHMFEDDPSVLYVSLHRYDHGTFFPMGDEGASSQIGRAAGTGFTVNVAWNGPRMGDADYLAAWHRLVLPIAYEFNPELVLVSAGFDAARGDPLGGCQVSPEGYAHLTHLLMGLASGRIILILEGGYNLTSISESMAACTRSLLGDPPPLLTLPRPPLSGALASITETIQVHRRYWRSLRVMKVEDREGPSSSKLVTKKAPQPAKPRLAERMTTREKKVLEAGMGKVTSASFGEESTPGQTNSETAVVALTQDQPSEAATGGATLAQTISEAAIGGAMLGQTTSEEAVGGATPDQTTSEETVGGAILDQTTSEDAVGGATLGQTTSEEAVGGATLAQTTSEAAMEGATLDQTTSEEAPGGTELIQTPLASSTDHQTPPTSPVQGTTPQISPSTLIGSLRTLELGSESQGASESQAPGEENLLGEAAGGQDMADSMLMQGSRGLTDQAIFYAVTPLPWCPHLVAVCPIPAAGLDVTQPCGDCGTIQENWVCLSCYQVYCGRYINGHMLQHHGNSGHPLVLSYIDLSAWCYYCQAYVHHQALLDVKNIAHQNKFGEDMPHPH
In words: HDAC6 enzyme activity inhibition (HDAC Fluorimetric Drug Discovery Kit). The conditions noted are these: for HDAC6 selectivity (fold): HDAC1 IC50 / HDAC6 IC50; for pIC50: human recombinant HDAC6, IC50 calculated with GraphPad Prism. In kind it is biochemical. Put shortly:
as §1

Assay [3] deals with hippocampal neurons from a Sprague-Dawley (SD) rat fetus. The assay can be described thus: Effect of HDAC6-specific inhibitor on axonal transport of mitochondria in amyloid-beta treated neurons. As to conditions: transport velocity of mitochondria in neuronal axon after normalization; vehicle = 100%, amyloid beta treatment group = 0%; compound treatment for three hours. Type of assay: cell-based. Put shortly:
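Rat E17-18 hippocampal neurons exposed to amyloid-beta fragments […]; after 24 h (day 8 in vitro) compound added for 3 h, mitochondria stained with MitoTracker Red CMXRos. Confocal imaging every 1 s for 1 min gave per-mitochondrion velocity, normalized vehicle = 100%, amyloid-beta = 0%.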

The structures appear in SMILES notation. pIC50: −log10 of the molar value. A value given as a limit tells only on which side of the number the result lay.

T1 sequence (Q13547 whole entry): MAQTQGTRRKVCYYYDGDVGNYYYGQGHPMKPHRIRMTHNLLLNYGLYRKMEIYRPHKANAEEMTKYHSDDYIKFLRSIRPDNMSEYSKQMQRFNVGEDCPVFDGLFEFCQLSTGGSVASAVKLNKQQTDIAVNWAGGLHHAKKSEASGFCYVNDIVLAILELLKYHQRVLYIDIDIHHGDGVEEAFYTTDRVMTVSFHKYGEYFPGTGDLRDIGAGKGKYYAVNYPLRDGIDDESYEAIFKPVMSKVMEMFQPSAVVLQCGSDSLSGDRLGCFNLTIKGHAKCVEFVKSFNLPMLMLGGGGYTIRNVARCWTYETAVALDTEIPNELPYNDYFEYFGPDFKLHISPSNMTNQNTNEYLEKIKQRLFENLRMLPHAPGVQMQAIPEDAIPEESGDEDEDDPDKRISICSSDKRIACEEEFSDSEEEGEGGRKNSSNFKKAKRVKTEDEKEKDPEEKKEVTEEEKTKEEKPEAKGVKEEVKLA

In the case of `Fc1cc(-c2nnc(C(F)F)o2)ccc1Cn1cc(-c2cccc3[nH]ccc23)nn1` [Compound 4079, 2-(4-((4-(1H-indol-4-yl)-1H-1,2,3-triazol-1-yl)methyl)-3-fluorophenyl)-5-(difluoromethyl)-1,3,4-oxadiazole], the values for the pIC50 in assay [1] and in assay [2] were below 4.30 and 7.60, respectively. In addition, the “HDAC6 selectivity (fold)” value in assay [2] is reported as 1992 fold. In addition, the “Velocity distribution (%)” value in assay [3] was “** (**, 50%˜100%)”.
Take `FC(F)c1nnc(-c2ccc(Cn3cc(-c4ccc5[nH]ccc5c4)nn3)cc2)o1` [Compound 4080, 2-(4-((4-(1H-indol-5-yl)-1H-1,2,3-triazol-1-yl)methyl)phenyl)-5-(difluoromethyl)-1,3,4-oxadiazole]: the pIC50 in assay [1] was below 4.30. Further, in assay [2], the “HDAC6 selectivity (fold)” value is 2145 fold and the pIC50 is 7.63. In addition, the “Velocity distribution (%)” value in assay [3] is recorded as “*** (***, >100%)”.
With `CN1CCN(c2ccc(-c3cn(Cc4ccc(-c5nnc(C(F)F)o5)cn4)nn3)cc2)CC1` [Compound 4107, 2-(difluoromethyl)-5-(6-((4-(4-(4-methylpiperazin-1-yl)phenyl)-1H-1,2,3-triazol-1-yl)methyl)pyridin-3-yl)-1,3,4-oxadiazole], the pIC50 in assay [1] was below 4.30; in assay [2] it was 7.40. Moreover, the “HDAC6 selectivity (fold)” value in assay [2] is on record as 1256 fold. Besides, the “Velocity distribution (%)” value in assay [3] is reported as “** (**, 50%˜100%)”.
As to `FC(F)c1nnc(-c2ccc(Cn3cc(-c4ccc5c(CN6CCCC6)c[nH]c5c4)nn3)cc2)o1` [Compound 4108, 2-(difluoromethyl)-5-(4-((4-(3-(pyrrolidin-1-ylmethyl)-1H-indol-6-yl)-1H-1,2,3-triazol-1-yl)methyl)phenyl)-1,3,4-oxadiazole], the pIC50 in assay [1] is below 4.30; in assay [2], 8.07. For the same compound, in assay [2], the “HDAC6 selectivity (fold)” value is 5882 fold. Further, the “Velocity distribution (%)” value in assay [3] is reported as “*** (***, >100%)”.
Turning to `Fc1cc(-c2nnc(C(F)F)o2)ccc1Cn1cc(-c2ccc3c(CN4CCCC4)c[nH]c3c2)nn1` [Compound 4109, 2-(difluoromethyl)-5-(3-fluoro-4-((4-(3-(pyrrolidin-1-ylmethyl)-1H-indol-6-yl)-1H-1,2,3-triazol-1-yl)methyl)phenyl)-1,3,4-oxadiazole], the pIC50 was below 4.30 in assay [1] and 7.86 in assay [2]. In assay [2], the “HDAC6 selectivity (fold)” value came to 3649 fold. In assay [3], the “Velocity distribution (%)” value is “*** (***, >100%)”.
`CC1CCN(Cc2c[nH]c3cc(-c4cn(Cc5ccc(-c6nnc(C(F)F)o6)cc5F)nn4)ccc23)CC1` [Compound 4110, 2-(difluoromethyl)-5-(3-fluoro-4-((4-(3-((4-methylpiperidin-1-yl)methyl)-1H-indol-6-yl)-1H-1,2,3-triazol-1-yl)methyl)phenyl)-1,3,4-oxadiazole]: the pIC50 in assay [1] was below 4.30. Besides, in assay [2], the “HDAC6 selectivity (fold)” value is 3030 fold and the pIC50 is 7.78. Also, in assay [3], the “Velocity distribution (%)” value is “** (**, 50%˜100%)”.
Take `CC1CCN(Cc2c[nH]c3cc(-c4cn(Cc5ccc(-c6nnc(C(F)F)o6)cn5)nn4)ccc23)CC1` [Compound 4111, 2-(difluoromethyl)-5-(6-((4-(3-((4-methylpiperidin-1-yl)methyl)-1H-indol-6-yl)-1H-1,2,3-triazol-1-yl)methyl)pyridin-3-yl)-1,3,4-oxadiazole]: the pIC50 in assay [1] was below 4.30. Further, in assay [2], the “HDAC6 selectivity (fold)” value came to 4587 fold and the pIC50 was 7.96. For the same compound, in assay [3], the “Velocity distribution (%)” value is listed as “** (**, 50%˜100%)”.
Turning to `Fc1cc(-c2nnc(C(F)F)o2)ccc1Cn1cc(-c2ccc3c(CN4CCOCC4)c[nH]c3c2)nn1` [Compound 4112], in assay [1], the pIC50 was below 4.30. In addition, in assay [2], the “HDAC6 selectivity (fold)” value is 3125 fold and the pIC50 was 7.80. Besides, the “Velocity distribution (%)” value in assay [3] is recorded as “*** (***, >100%)”.
Take `FC(F)c1nnc(-c2ccc(Cn3cc(-c4ccc5c(CN6CCOCC6)c[nH]c5c4)nn3)cc2)o1` [Compound 4134, 4-((6-(1-(4-(5-(difluoromethyl)-1,3,4-oxadiazol-2-yl)benzyl)-1H-1,2,3-triazol-4-yl)-1H-indol-3-yl)methyl)morpholine]: the pIC50 in assay [1] is below 4.30. Besides, in assay [2], the “HDAC6 selectivity (fold)” value is given as 3030 fold and the pIC50 was 7.78. Besides, in assay [3], the “Velocity distribution (%)” value was “** (**, 50%˜100%)”.
For the compound `Fc1cc(-c2nnc(C(F)F)o2)ccc1Cn1cc(-c2ccc3[nH]ccc3c2)nn1` [Compound 4135, 2-(4-((4-(1H-indol-5-yl)-1H-1,2,3-triazol-1-yl)methyl)-3-fluorophenyl)-5-(difluoromethyl)-1,3,4-oxadiazole], the pIC50 in assay [1] is below 4.30; in assay [2], 7.78. Further, the “HDAC6 selectivity (fold)” value in assay [2] was determined as 2941 fold. For the same compound, the “Velocity distribution (%)” value in assay [3] is reported as “** (**, 50%˜100%)”.
On to `CCn1ccc2ccc(-c3cn(Cc4ccc(-c5nnc(C(F)F)o5)cn4)nn3)cc21` [Compound 4136, 2-(difluoromethyl)-5-(6-((4-(1-ethyl-1H-indol-6-yl)-1H-1,2,3-triazol-1-yl)methyl)pyridin-3-yl)-1,3,4-oxadiazole], for which the pIC50 in assay [1] is below 4.30. Besides, in assay [2], the “HDAC6 selectivity (fold)” value amounted to 2873 fold and the pIC50 is 7.76. Moreover, the “Velocity distribution (%)” value in assay [3] was “** (**, 50%˜100%)”.
Consider `FC(F)c1nnc(-c2ccc(Cn3cc(-c4cncc(Br)c4)nn3)nc2)o1` [Compound 4182, 2-(6-((4-(5-bromopyridin-3-yl)-1H-1,2,3-triazol-1-yl)methyl)pyridin-3-yl)-5-(difluoromethyl)-1,3,4-oxadiazole], for which the pIC50 in assay [1] is below 4.30; in assay [2], 7.65. The “HDAC6 selectivity (fold)” value in assay [2] was 2252 fold. For the same compound, the “Velocity distribution (%)” value in assay [3] is on record as “** (**, 50%˜100%)”.
With `Fc1cc(-c2cn(Cc3ccc(-c4nnc(C(F)F)o4)cn3)nn2)ccn1` [Compound 4185, 2-(difluoromethyl)-5-(6-((4-(2-fluoropyridin-4-yl)-1H-1,2,3-triazol-1-yl)methyl)pyridin-3-yl)-1,3,4-oxadiazole], in assay [1], the pIC50 is below 4.30. In addition, in assay [2], the “HDAC6 selectivity (fold)” value is given as 729 fold and the pIC50 is 7.16. Moreover, the “Velocity distribution (%)” value in assay [3] is recorded as “*** (***, >100%)”.
As to `FC(F)c1nnc(-c2ccc(Cn3cc(-c4ccc5[nH]cc(CN6CCOCC6)c5c4)nn3)nc2)o1` [Compound 4187, 4-((5-(1-((5-(5-(difluoromethyl)-1,3,4-oxadiazol-2-yl)pyridin-2-yl)methyl)-1H-1,2,3-triazol-4-yl)-1H-indol-3-yl)methyl)morpholine], the pIC50 in assay [1] is below 4.30. For the same compound, in assay [2], the “HDAC6 selectivity (fold)” value was 5617 fold and the pIC50 was 8.05. Besides, the “Velocity distribution (%)” value in assay [3] is given as “* (*, 0%˜50%)”.
Regarding `FC(F)c1nnc(-c2ccc(Cn3cc(-c4ccc5cc[nH]c5c4)cn3)nc2)o1` [Compound 4208], the pIC50 in assay [1] was below 4.30; in assay [2], 7.47. Further, the “HDAC6 selectivity (fold)” value in assay [2] is reported as 1479 fold. For the same compound, in assay [3], the “Velocity distribution (%)” value is recorded as “** (**, 50%˜100%)”.
Regarding `CC(C)N1CCc2ccc(-c3cn(Cc4ccc(-c5nnc(C(F)F)o5)cn4)nn3)cc2C1` [Compound 4210, 2-(difluoromethyl)-5-(6-((4-(2-isopropyl-1,2,3,4-tetrahydroisoquinolin-7-yl)-1H-1,2,3-triazol-1-yl)methyl)pyridin-3-yl)-1,3,4-oxadiazole], in assay [1], the pIC50 is below 4.30. Further, in assay [2], the “HDAC6 selectivity (fold)” value was determined as 963 fold and the pIC50 is 7.28. For the same compound, the “Velocity distribution (%)” value in assay [3] is recorded as “* (*, 0%˜50%)”.
